Source: patent US5484801A, “Pharmaceutical composition for inhibiting HIV protease” (Abbott Laboratories, priority 1995, dated 1996)
Entries after “also recorded” stand apart in the source; their conditions may differ.

How the values were obtained:
[1] = biological target: HIV-1 protease (HIV-1 M:B_HXB2R, UniProt P04585); type: biochemical
[2] = Oral bioavailability in dogs, Protocol A (solid dosage forms); type: in vivo, beagle dogs; details: dog, plasma; unformulated solid in a capsule dosage form, 5 mg/kg oral dose in dogs
Description: Each dog received a single solid dosage form corresponding to a 5 mg/kg dose of the drug.

[3] = system: HIV-2 protease; assay: Inhibition of HIV-2 protease; type: biochemical; details: statement in words

Compound	inhibition of HIV-1 protease [1]	bioavailability [2] [%]	inhibition of HIV-2 protease [3]	inhibition of HIV-2 protease ([3]; listed as formula II)
CC(C)c1nc(CN(C)C(=O)N[C@H](C(=O)N[C@@H](Cc2ccccc2)C[C@H](O)[C@H](Cc2ccccc2)NC(=O)OCc2cncs2)C(C)C)cs1 [Compound III, (2S,3S,5S)-5-(N-(N-((N-Methyl-N-((2-isopropyl-4-thiazolyl)methyl)-amino)carbonyl)valinyl)amino)-2-(N-((5-thiazolyl)methoxycarbonyl)amino)-1,6-diphenyl-3-hydroxyhexane]	inhibitors	< 2	inhibitors	
CC(C)c1nc(CN(C)C(=O)NC(C(=O)NC(Cc2ccccc2)CC(O)C(Cc2ccccc2)NC(=O)OCc2cncs2)C(C)C)cs1 (stereo not drawn) [Compound II]	especially effective; also recorded: inhibitors		inhibitors	especially effective
